In paper PMC10514461, “Characterization of a novel inhibitor for the New Delhi metallo-β-lactamase-4: Implications for drug design and combating bacterial drug resistance” (The Journal of Biological Chemistry, 2023):

Columns and labels:
NDM-1 [1] = format: biochemical; settings: against the NDMs (NDM-1 and NDM-4)
Experimental: The IC50 and Ki values were determined by the direct competition between nitrocefin substrate and inhibitors under appropriately controlled experiments. Different concentrations of inhibitor ranging from 0.001 to 500 μM, a fixed concentration of 12 nM of purified protein, and 20 μM of nitrocefin substrate were used in reaction. The rate of product formation was monitored based on the absorbance at 486 nm taken at 10 s intervals for 30 min. The relative change in absorbance was evaluated as percentage inhibition, and the IC50 was determined by fitting the data to a sigmoidal dose-response curve. The enzyme inhibition constant (Ki) was derived from initial-velocity measurements by nonlinear regression via competitive-inhibition enzyme kinetics using GraphPad Prism 9.

[2] = test system: Verona-integron-encoded MBL 2; settings: against Verona-integron-encoded MBL 2; cited from earlier work
NDM-1 [3] = biological target: NDM-1 (Klebsiella pneumoniae, UniProt C7C422); assay: Steady state kinetics of nitrocefin hydrolysis, NDM-1; format: biochemical; settings: nitrocefin as substrate
NDM-1 (Klebsiella pneumoniae, UniProt C7C422), sequence (C7C422 42-270 limits assumed): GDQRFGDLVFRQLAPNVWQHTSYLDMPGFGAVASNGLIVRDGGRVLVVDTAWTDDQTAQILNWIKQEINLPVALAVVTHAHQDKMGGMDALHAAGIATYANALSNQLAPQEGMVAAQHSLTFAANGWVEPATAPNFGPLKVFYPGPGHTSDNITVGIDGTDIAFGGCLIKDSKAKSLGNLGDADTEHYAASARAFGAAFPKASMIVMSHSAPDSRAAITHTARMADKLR
Experimental: (§1) Nitrocefin (Cayman, CAS 41906-86-9) was used as the chromogenic substrate for all enzyme kinetic assays. The enzymatic activity of purified NDM-1 and NDM-4 was determined spectrophotometrically at room temperature in 1X PBS, pH 7. The rate of product formation was monitored based on the absorbance at 486 nm taken at 10 s intervals for 30 min. The KM and kcat values were determined from ten different concentrations of nitrocefin ranging from 0.01 μM to 250 μM with at least four independent initial-velocity measurements using 12 nM of each enzyme and fitted by nonlinear regression using Michaelis–Menten enzyme kinetics with GraphPad Prism 9 (https://www.graphpad.com/).

NDM-4 (M154L) = biological target: T1, NDM-4 (M154L) (Klebsiella pneumoniae, UniProt C7C422, M154L); assay: Steady state kinetics of nitrocefin hydrolysis, NDM-4; format: biochemical; settings: nitrocefin as substrate
T1 construct: The electron density for the polypeptide chain was continuous from Gly 42 to Arg 270; polyhistidine (with TEV site) (N, cleaved yes); made in house; host or cells: Rosetta2(DE3) E. coli
T1 sequence (C7C422 42-270 M154L): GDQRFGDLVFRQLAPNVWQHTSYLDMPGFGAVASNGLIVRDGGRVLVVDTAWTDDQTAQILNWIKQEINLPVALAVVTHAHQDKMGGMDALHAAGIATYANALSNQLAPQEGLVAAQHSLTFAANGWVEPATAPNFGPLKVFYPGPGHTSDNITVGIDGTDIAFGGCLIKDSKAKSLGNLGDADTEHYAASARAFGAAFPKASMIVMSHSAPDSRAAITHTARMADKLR
Experimental: as §1

Row | Compound | potency over L-captopril (NDM-1 [1]) [fold] | enhanced inhibition activity over parent scaffold 1,2 hydroxy pyrithione [2] | kcat (NDM-1 [3]; NDM-1) [s⁻¹] | Km (NDM-1 [3]; NDM-1, 1X PBS pH 7, room temperature) [µM] | kcat (NDM-4 (M154L); NDM-4) [s⁻¹] | Km (NDM-4 (M154L); NDM-4, 1X PBS pH 7, room temperature) [µM]
1 | O=C(O)c1cccc(=S)n1O [Compound 1, 1-hydroxypyridine-2(1H)-thione-6-carboxylic acid] | > 1600 | more than 10 fold |  |  |  | 
2 | O=C(Cc1cccs1)N[C@@H]1C(=O)N2C(C(=O)O)=C(/C=C/c3ccc([N+](=O)[O-])cc3[N+](=O)[O-])CS[C@H]12 [Nitrocefin] |  |  | 86 ± 11 | 10.9 ± 0.6 | 70 ± 7 | 9.4 ± 0.2
